For this data set, the system named is rodent carcinogenicity bioassays, tumor incidence. Kind of data set: CCRIS carcinogenicity studies. Summed up: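 NCI-built, expert-reviewed records of carcinogenicity and related test outcomes (mutagenicity, tumor promotion/inhibition) compiled from published and report sources, historical span 1985-2011, not updated.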

Calls of active or inactive are those of the source. The rule behind the calls is not given here.

The text below walks through data of PubChem BioAssay AID1259411 (Chemical Carcinogenesis Research Information System (CCRIS), 2018).

`Oc1ccccc1O`: the carcinogen call was “active; positive” (Species: MOUSE, Strain/Sex: B6C3F1/FEMALE, Route: ORAL, Dose: 0, 0.8% IN DIET FOR 96 WK (STUDY DURATION: 96 WK), Tumor Site: Type of Lesion: GLANDULAR STOMACH: ADENOMA); “inactive; negative” (Species: MOUSE, Strain/Sex: B6C3F1/FEMALE, Route: ORAL, Dose: 0, 0.8% IN POWDERED BASAL DIET FOR 96 WK (STUDY DURATION: 96 WK)); “active; positive” (Species: MOUSE, Strain/Sex: B6C3F1/MALE, Route: ORAL, Dose: 0, 0.8% IN DIET FOR 96 WK (STUDY DURATION: 96 WK), Tumor Site: Type of Lesion: GLANDULAR STOMACH: ADENOMA); “inactive; negative” (Species: MOUSE, Strain/Sex: B6C3F1/MALE, Route: ORAL, Dose: 0, 0.8% IN POWDERED BASAL DIET FOR 96 WK (STUDY DURATION: 96 WK)); “active; positive” (Species: RAT, Strain/Sex: F344/FEMALE, Route: ORAL, Dose: 0, 0.8% IN DIET FOR 104 WK (STUDY DURATION: 104 WK), Tumor Site: Type of Lesion: GLANDULAR STOMACH: ADENOMA, ADENOCARCINOMA); “active; positive” (Species: RAT, Strain/Sex: F344/FEMALE, Route: ORAL, Dose: 0, 0.8% IN POWDERED BASAL DIET FOR 104 WK (STUDY DURATION: 104 WK), Tumor Site: Type of Lesion: GLANDULAR STOMACH: ADENOCARCINOMA). The carcinogen call is “active; positive” (Species: RAT, Strain/Sex: F344/FEMALE, Route: ORAL, Dose: 0, 2% IN DIET FOR 104 WK (STUDY DURATION: 104 WK), Tumor Site: Type of Lesion: GLANDULAR STOMACH: ADENOCARCINOMA); “active; positive” (Species: RAT, Strain/Sex: F344/MALE, Route: ORAL, Dose: 0, 0.1, 0.2, 0.4, 0.8% IN DIET FOR 104 WK (STUDY DURATION: 104 WK), Dose: 0, 0.1, 0.2, 0.4, 0.8% IN DIET FOR 104 WK (STUDY DURATION: 104 WK), Tumor Site: Type of Lesion: GLANDULAR STOMACH: ADENOMA, PANCREAS: ACINAR CELL ADENOMA); “active; positive” (Species: RAT, Strain/Sex: F344/MALE, Route: ORAL, Dose: 0, 0.16% IN DIET FOR DURATION OF STUDY (STUDY DURATION: 104 WK), Tumor Site: Type of Lesion: GLANDULAR STOMACH: ADENOMA); “active; positive” (Species: RAT, Strain/Sex: F344/MALE, Route: ORAL, Dose: 0, 0.8% IN DIET FOR 12, 24, 48, 72, OR 96 WK FOLLOWED BY BASAL DIET FOR 84, 72, 48, 24, AND 0 WK RESPECTIVELY (STUDY DUR, Tumor Site: Type of Lesion: STOMACH: ADENOMA, ADENOCARCINOMA); “active; positive” (Species: RAT, Strain/Sex: F344/MALE, Route: ORAL, Dose: 0, 0.8% IN DIET FOR 104 WK (STUDY DURATION: 104 WK), Tumor Site: Type of Lesion: GLANDULAR STOMACH: ADENOMA, ADENOCARCINOMA); “active; positive” (Species: RAT, Strain/Sex: F344/MALE, Route: ORAL, Dose: 0, 0.8% IN POWDERED BASAL DIET FOR 104 WK (STUDY DURATION: 104 WK), Tumor Site: Type of Lesion: GLANDULAR STOMACH: ADENOCARCINOMA). Also, the carcinogen call is “active; positive” (Species: RAT, Strain/Sex: F344/MALE, Route: ORAL, Dose: 0, 2% IN DIET FOR 104 WK (STUDY DURATION: 104 WK), Tumor Site: Type of Lesion: GLANDULAR STOMACH: ADENOCARCINOMA); “active; positive” (Species: RAT, Strain/Sex: LEWIS/MALE, Route: ORAL, Dose: 0, 0.8% IN DIET FOR 104 WK (STUDY DURATION: 104 WK), Tumor Site: Type of Lesion: GLANDULAR STOMACH: ADENOMA, ADENOCARCINOMA); “active; positive” (Species: RAT, Strain/Sex: SPRAGUE-DAWLEY/MALE, Route: ORAL, Dose: 0, 0.8% IN DIET FOR 104 WK (STUDY DURATION: 104 WK), Tumor Site: Type of Lesion: GLANDULAR STOMACH: ADENOMA, ADENOCARCINOMA, FORESTOMACH: PAPILLOMA); “active; positive” (Species: RAT, Strain/Sex: WISTAR/MALE, Route: ORAL, Dose: 0, 0.8% IN DIET FOR 104 WK (STUDY DURATION: 104 WK), Tumor Site: Type of Lesion: GLANDULAR STOMACH: ADENOMA, ADENOCARCINOMA); “active; positive” (Species: RAT, Strain/Sex: WKY/MALE, Route: ORAL, Dose: 0, 0.8% IN DIET FOR 104 WK (STUDY DURATION: 104 WK), Tumor Site: Type of Lesion: GLANDULAR STOMACH: ADENOMA).
Consider `CC(=O)O[C@]1(C(C)=O)CC[C@H]2[C@@H]3C=C(Cl)C4=CC(=O)CC[C@]4(C)[C@H]3CC[C@@]21C`, for which, where the note is “Species: DOG, Route: ORAL, Tumor Site: Type of Lesion: MAMMARY GLAND”, the carcinogen call was “active; positive”.
Regarding `O=c1[nH]cc(F)c(=O)[nH]1`, the carcinogen call reads like this: (Species: MOUSE, Strain/Sex: B6C3F1/FEMALE, Route: ORAL, Dose: 0, 30, 60 PPM IN DRINKING WATER FOR 82 WK (STUDY DURATION: 86 WK), Dose: 0, 30, 60 PPM IN DRINKING WATER FOR 82 WK (STUDY DURATION: 86 WK)) “inactive; negative”; (Species: MOUSE, Strain/Sex: B6C3F1/MALE, Route: ORAL, Dose: 0, 30, 60 PPM IN DRINKING WATER FOR 82 WK (STUDY DURATION: 86 WK), Dose: 0, 30, 60 PPM IN DRINKING WATER FOR 82 WK (STUDY DURATION: 86 WK)) “inactive; negative”; (Species: MOUSE, Strain/Sex: BALB/FEMALE, Route: INTRAPERITONEAL, Dose: 0, 30 MG/KG IN STERILE SALINE 1/WK FOR 50 WK (STUDY DURATION: 105 WK), Tumor Site: Type of Lesion: LUNG: TUMOR, LYMPHORETICULAR SYSTEM: LYMPHOMA OR LEUKEMIA) “active; positive”; (Species: MOUSE, Strain/Sex: BALB/MALE, Route: INTRAPERITONEAL, Dose: 0, 30 MG/KG IN STERILE SALINE 1/WK FOR 50 WK (STUDY DURATION: 105 WK), Tumor Site: Type of Lesion: LUNG: TUMOR) “active; positive”; (Species: RAT, Strain/Sex: F344/FEMALE, Route: ORAL, Dose: 0, 62, 125 PPM IN DRINKING WATER FOR 111 WK (STUDY DURATION: 111 WK), Dose: 0, 62, 125 PPM IN DRINKING WATER FOR 111 WK (STUDY DURATION: 111 WK)) “inactive; negative”; (Species: RAT, Strain/Sex: F344/MALE, Route: ORAL, Dose: 0, 62, 125 PPM IN DRINKING WATER FOR 111 WK (STUDY DURATION: 111 WK), Dose: 0, 62, 125 PPM IN DRINKING WATER FOR 111 WK (STUDY DURATION: 111 WK)) “inactive; negative”.
Regarding `[P]#[Ga]`, the carcinogen call is “inactive; negative” (Species: MOUSE, Strain/Sex: ICR/MALE, Route: INTRAPERITONEAL, Dose: 0, 48, 480 MG/KG AS GALLIUM SUSPENDED IN OLIVE OIL ONCE (STUDY DURATION: 18 MO), Dose: 0, 48, 480 MG/KG AS GALLIUM SUSPENDED IN OLIVE OIL ONCE (STUDY DURATION: 18 MO)) and “inactive; negative” (Species: MOUSE, Strain/Sex: ICR/MALE, Route: SUBCUTANEOUS, Dose: 0, 48, 480 MG/KG AS GALLIUM SUSPENDED IN OLIVE OIL ONCE (STUDY DURATION: 18 MO), Dose: 0, 48, 480 MG/KG AS GALLIUM SUSPENDED IN OLIVE OIL ONCE (STUDY DURATION: 18 MO)).
Turning to `Cc1ccc(N)cc1`, under “Species: MOUSE, Route: ORAL, Tumor Site: Type of Lesion: LIVER”, the carcinogen call was “active; positive”.
Take `CC1(C)C(C=C(Cl)Cl)C1C(=O)OC(C#N)c1ccc(F)c(Oc2ccccc2)c1` (stereo unspecified): the carcinogen call was “inactive; negative” (Species: Mouse, Strain/Sex: CD-1/Female (56/dose), Route: Oral, Dose: 0, 200, 750, 1,600 ppm (0; 38.4; 140/6; 309.7 mg/kg/day) of 94-95% pure cyfluthrin in feed for 18 mo, Dose: 0, 200, 750, 1,600 ppm (0; 38.4; 140/6; 309.7 mg/kg/day) of 94-95% pure cyfluthrin in feed for 18 mo); “inactive; negative” (Species: Mouse, Strain/Sex: CD-1/Male (56/dose), Route: Oral, Dose: 0, 200, 750, 1,400 ppm (0; 31.9; 114.8; 232.7 mg/kg/day) of 94-95% pure cyfluthrin in feed for 18 mo, Dose: 0, 200, 750, 1,400 ppm (0; 31.9; 114.8; 232.7 mg/kg/day) of 94-95% pure cyfluthrin in feed for 18 mo); “inactive; negative” (Species: Rat, Strain/Sex: Fisher 344/Female (55/dose), Route: Oral, Dose: 0, 50, 225, 450 ppm (3.3; 14.4; 28.3 mg/kg/day) of 93.9-95.1% pure cyfluthrin in feed for 2 yr, Dose: 0, 50, 225, 450 ppm (3.3; 14.4; 28.3 mg/kg/day) of 93.9-95.1% pure cyfluthrin in feed for 2 yr); “inactive; negative” (Species: Rat, Strain/Sex: Fisher 344/Male (55/dose), Route: Oral, Dose: 0, 50, 225, 450 ppm (2.6; 11.6; 22.8 mg/kg/day) of 93.9-95.1% pure cyfluthrin in feed for 2 yr, Dose: 0, 50, 225, 450 ppm (2.6; 11.6; 22.8 mg/kg/day) of 93.9-95.1% pure cyfluthrin in feed for 2 yr).
